Legend:
Trypanosoma cruzi [1] = experiment: GSK_TCAKS: pIC50 Trypanosoma cruzi viability assay using beta-GAL activity. This assay was run at single shot at 5uM compound concentration per well. The biological reagents consisted of NIH-3T3 host cells and trypomastigotes parasitic cells; both cell types were set to a 3.3 * 10^5 cells/mL dilution in assay DMEM by means of a CASY cell counter device using a 60um capillary. 6 uL of the mixture were dispensed per well (about 1 * 10^3 host-cells and 1 * 10^3 parasites) with a Multidrop Combi dispenser. […] In all wells, the percentage of DMSO never exceeded 0.5%. Plates incubated for four days at 37C, 5% CO2. The substrate used for the assay fluorescence intensity (FLINT) readout was resorufin-beta-D-galactopiranoside (Sigma-Aldrich) at 5uM per well. It was diluted in PBS supplemented with the soft detergent Igepal (Fluka).; format: functional, organism-based, Mus musculus; conditions: Tulahuen, NIH3T3
Trypanosoma cruzi [2] = experiment: (§1) GSK_TCAKS: pIC50 Trypanosoma cruzi Imaging: Infected Cells. […] Cells were then washed once with PBS before infection. T. cruzi trypomastigotes, collected at days 5 to 8 after infection from LLC-MK2 parasite infected cultures, were allowed to swim out for 4h at 37C from a centrifuged pellet (2,500 rpm/10 min/room temperature). Trypomastigotes were then collected and counted in a CASY Cell Counter. Trypomastigotes, in supplemented DMEM, were added to H9c2 cultures in a multiplicity of infection of 1 and incubated for 18 h. Cells were washed once with PBS before incubation of the infected H9c2 monolayer with trypsin (Life-Technologies) to detach cells from the flask. Cells were counted in a CASY Cell Counter using a 150 um capillary and their density set at 5 * 10^4 cells per mL in supplemented assay DMEM. Infected H9c2 were dispensed into 384-well poly-lysine coated assay plates at 50uL per well using a Multidrop Combi dispenser. After seeding them, the plates were incubated at 37C, 5% CO2 for 72h. Cultures were then fixed and stained by addition of 50 uL of a solution containing 8% formaldehyde and 4 uM DRAQ5 DNA dye (BioStatus, UK) per well. […] Five images were collected per well for reliable statistical analysis. Automated image analysis was performed with a script developed on Acapella High Content Imaging and Analysis Software (PerkinElmer). Output: percentage of infected cells per well as a second infection marker.; format: functional, organism-based, Rattus norvegicus; conditions: H9c2, 4 h
Trypanosoma cruzi [3] = experiment: GSK_TCAKS: pIC50 Trypanosoma cruzi Imaging: Amastigotes/Cell. […] Cells were then washed once with PBS before infection. T. cruzi trypomastigotes, collected at days 5 to 8 after infection from LLC-MK2 parasite infected cultures, were allowed to swim out for 4h at 37C from a centrifuged pellet (2,500 rpm/10 min/room temperature). Trypomastigotes were then collected and counted in a CASY Cell Counter. Trypomastigotes, in supplemented DMEM, were added to H9c2 cultures in a multiplicity of infection of 1 and incubated for 18 h. Cells were washed once with PBS before incubation of the infected H9c2 monolayer with trypsin (Life-Technologies) to detach cells from the flask. Cells were counted in a CASY Cell Counter using a 150 um capillary and their density set at 5 * 10^4 cells per mL in supplemented assay DMEM. Infected H9c2 were dispensed into 384-well poly-lysine coated assay plates at 50uL per well using a Multidrop Combi dispenser. After seeding them, the plates were incubated at 37C, 5% CO2 for 72h. Cultures were then fixed and stained by addition of 50 uL of a solution containing 8% formaldehyde and 4 uM DRAQ5 DNA dye (BioStatus, UK) per well. […] Five images were collected per well for reliable statistical analysis. Automated image analysis was performed with a script developed on Acapella High Content Imaging and Analysis Software (PerkinElmer). Output: number of amastigotes per cell as infection level measurement.; format: functional, organism-based, Rattus norvegicus; conditions: H9c2, 4 h
Trypanosoma cruzi [4] = experiment: as §1, with “H2C9” for “Trypanosoma cruzi”, “H9c2 Host Cardiomyocytes.” for “Infected Cells.”, “Number” for “percentage”, “H9c2 Host Cardiomyocytes nuclei to determine drug-related cytotoxicity.” for “infected cells per well as a second infection marker.”; format: functional, organism-based, Rattus norvegicus; conditions: H9c2, 4 h
Leishmania donovani [5] = experiment: GSK_TCAKS: pIC50 Leishmania donovani viability assay using fluorescence intensity. Assay plates (1536-well) were prepared by adding 30nL per well of compound. For single shot assay, the final compound concentration was 5uM. […] Briefly, eGFP LdBOB axenic amastigotes were harvested, fixed and counted in a CASY cell counter (Roche-Applied Science). A final concentration of 1.5 * 10^5 cells per well were prepared in amastigote media containing 500 U/mL penicillin/streptomycin (Invitrogen) and 6uL was dispensed to each experimental well using a Multidrop Combi dispenser (Thermo Scientific). 6uL of assay media was dispensed to control columns used as reference for 100% compound response. Following incubation for 72 h at 37C, 5% CO2, 2 uL of resazurin was added to each well at a final concentration of 0.5 mM in phosphate buffered saline (PBS) with IGEPAL (Sigma-Aldrich), 0.05% (v/v).; format: functional, organism-based
Leishmania donovani [6] = experiment: (§2) GSK_TCAKS: pIC50 Leishmania donovani Imaging: Infected Macrophages. Assay plates (384-well) were prepared by adding 250nL of compound to each well. For single shot assay, the final compound concentration was 5 uM. […] Automated image analysis was performed with a script developed on Acapella High Content Imaging and Analysis Software (PerkinElmer). Output: Percent of infected macrophage cells were reported for each well.; format: functional, organism-based, Homo sapiens; conditions: THP-1
Leishmania donovani [7] = experiment: as §2, with “Amastigotes/Macrophages.” for “Infected Macrophages.”, “Average number” for “Percent”, “amastigotes per” for “infected”, “cell” for “cells”; format: functional, organism-based, Homo sapiens; conditions: THP-1
Leishmania donovani [8] = experiment: as §2, with “THP-1 Host” for “Infected”, “THP-1 cell count” for “Percent of infected macrophage cells”; format: functional, organism-based, Homo sapiens
[9] = test system: Trypanosoma brucei brucei; experiment: GSK_TCAKS: pIC50 Trypanosoma brucei viability assay using fluorescence intensity. Assay plates (1536-well) were prepared by dispensing 25nL of compound solution per well using an Echo acoustic dispenser (Labcyte).; format: functional, organism-based; conditions: Lister 427, 2 h
[10] = test system: Trypanosoma brucei brucei; experiment: GSK_TCAKS: pIC50 Trypanosoma brucei viability assay using luminiscence. Assay plates (1536-well) were prepared. T. brucei cultures were harvested and counted in a CASY cell counter. A parasite suspension was prepared at a final concentration of 5 * 10^4 cells/mL in complete HMI9 medium and 6uL was dispensed to all wells containing compounds using a Multidrop Combi dispenser. 6uL of HMI9 media with 0.4% DMSO were dispensed to control columns. Plates were incubated for 24 h at 37C, 5% CO2 then tempered for 10 min at room temperature. ATP content was quantified by adding 4 uL of CellTiter-Glo Reagent (Promega) according to the manufacturer's instructions. Luminescence was measured using a ViewLux.; format: functional, organism-based; conditions: Lister 427, CASY
[11] = GSK_TCAKS: pIC50 HepG2 human cell line viability assay using luminiscence. […] Seeding density was checked to ensure that new mono-layers were not more than 50% confluent at the time of harvesting. Cell suspension was added to 500 mL of the same medium at a final density of 1.2 * 10^5 cells/mL. This cell suspension was dispensed (25 uL, 3000 cells per well) into 384-well clear-bottom plates using a Multidrop Combi dispenser. Prior to addition of the cell suspension, the screening compounds (250 nL) were pre-dispensed into the plates with an Echo liquid handler. Plates were incubated for 48 h at 37C, 5% CO2. After incubation, plates equilibrated at room temperature for 30 min before proceeding to develop the luminescent signal. The signal developer, CellTiter-Glo Reagent, was allowed to equilibrate at room temperature for 30 min and added to the plates (25uL per well) using a Multidrop Combi dispenser. Plates were left for 10 min at room temperature for stabilization and then read using a ViewLux.; format: toxicity, cell-based
NIH3T3 = experiment: GSK_TCAKS: pIC50 NIH 3T3 cell line viability assay using luminiscence. Tissue culture surface treated assay plates (1536-well) were used. […] The 100% cells survival control was determined exposing the host-cells to a 0.5% DMSO concentration, whereas the 100% toxicity control was achieved by seeding the cells in presence of Amphotericin B at 50uM. Plates were incubated for four days at 37C, 5% CO2. The assay readout was developed by addition of 5uL of CellTiter-Glo Reagent following the manufacturer's instructions. Luminiscence was measured using a ViewLux.; format: functional, cell-based; conditions: Mus musculus, NIH3T3, 96 h
[12] = target: Sterol 14-alpha demethylase (Trypanosoma cruzi (strain CL Brener), UniProt Q7Z1V1); experiment: GSK_TCAKS: pIC50 CYP51 from Trypanosoma cruzi.; format: functional
Sterol 14-alpha demethylase, sequence (Q7Z1V1 whole entry): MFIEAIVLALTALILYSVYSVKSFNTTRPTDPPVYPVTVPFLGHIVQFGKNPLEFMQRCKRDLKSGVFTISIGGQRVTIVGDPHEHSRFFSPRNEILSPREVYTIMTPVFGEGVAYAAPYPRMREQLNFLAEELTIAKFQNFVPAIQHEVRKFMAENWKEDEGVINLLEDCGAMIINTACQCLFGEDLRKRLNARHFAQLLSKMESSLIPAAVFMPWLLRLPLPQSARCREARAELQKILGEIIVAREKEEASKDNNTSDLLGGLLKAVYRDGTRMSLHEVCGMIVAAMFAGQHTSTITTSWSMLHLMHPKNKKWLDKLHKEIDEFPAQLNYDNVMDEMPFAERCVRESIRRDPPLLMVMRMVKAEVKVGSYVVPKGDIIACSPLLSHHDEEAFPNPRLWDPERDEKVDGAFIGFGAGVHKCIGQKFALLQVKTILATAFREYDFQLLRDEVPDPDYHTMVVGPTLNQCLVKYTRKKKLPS

| Compound | IC50 (Trypanosoma cruzi [1]) [µM] | IC50 (Trypanosoma cruzi [2]) [µM] | IC50 (Trypanosoma cruzi [3]) [µM] | IC50 (Trypanosoma cruzi [4]) [µM] | IC50 (Leishmania donovani [5]) [µM] | IC50 (Leishmania donovani [6]) [µM] | IC50 (Leishmania donovani [7]) [µM] | IC50 (Leishmania donovani [8]) [µM] | IC50 [9] [µM] | IC50 [10] [µM] | IC50 at 48 h [11] [µM] | IC50 (NIH3T3) [µM] | IC50 [12] [µM] |
| --- | --- | --- | --- | --- | --- | --- | --- | --- | --- | --- | --- | --- | --- |
| N#Cc1nc(C=Cc2ccccc2)oc1NCc1cccnc1 | 0.251 | 0.398 | 0.398 | 15.8 | 25.1 | 39.8 | 31.6 | 31.6 | 15.8 | 31.6 | > 100 | 12.6 |  |
| CCOc1ccc(NC(=O)C=Cc2ccc(CC)o2)cc1 | 2 | 25.1 | 15.8 | > 50.1 | 20 | 50.1 | 25.1 | 20 | 15.8 |  | 79.4 | 31.6 | > 100 |
| COc1cc(NC(=O)Nc2cccc(CNC(=O)OC3CCCCC3)c2)ccc1-c1cnco1 | 1 | 25.1 | 31.6 | 15.8 | > 50.1 | > 50.1 | 20 | 10 | 0.251 |  | 39.8 | 10 | 25.1 |
| CC(C)Nc1nccc(-c2c(-c3ccc(F)cc3)ncn2C2CCOCC2)n1 | 0.282 | 0.316 | 0.2 | > 50.1 | 25.1 | 25.1 | 15.8 | > 50.1 | 5.01 |  | > 100 | > 50.1 | > 100 |
| CN(C)c1ccc(-c2cc3nccnc3c(OC[C@H]3CCCNC3)n2)cn1 | 1.58 | > 50.1 | 1.58 | 20 | > 50.1 | 20 | 25.1 | 20 | 2 |  | 63.1 | 15.8 |  |
| CC(Cn1ccnc1)NC(=O)C=Cc1ccc(Cl)cc1 (stereo not drawn) | 0.398 | 1 | 0.631 | > 50.1 | > 50.1 | > 50.1 | > 50.1 | > 50.1 | > 39.8 |  | > 100 | > 50.1 | 0.158 |
| c1cncc(CN(Cc2ccco2)Cc2c[nH]nc2-c2cccs2)c1 | 0.02 | 0.0501 | 0.0398 | > 50.1 | 31.6 | > 50.1 | 1.26 | 20 | 25.1 |  | > 100 | 31.6 | 0.0794 |
| CC(C)Oc1ccc(C(=O)Nc2ccc(N3CCOCC3)c(Cl)c2)cc1 | 1.58 | 1.26 | 1.26 | > 50.1 | > 50.1 | > 50.1 | 3.16 | > 50.1 | 12.6 |  | 31.6 | 10 | > 100 |
| CCCCNc1nccc(-c2c(-c3ccc(F)cc3)nn3c(N4CCOCC4)cccc23)n1 | 0.398 | 3.16 | 1 | > 50.1 | > 50.1 | 6.31 | > 50.1 | 12.6 | 10 |  | > 100 | 10 | > 100 |
| O=c1nc(NCCCNCc2cc(Br)cc(Br)c2)[nH]c2ccsc12 | 0.631 | 0.631 | 0.398 | 25.1 | 15.8 | 5.01 | 2.51 | 15.8 | 0.1 | 0.1 | 50.1 |  | 31.6 |
| O=c1cc(NCCCNCc2c[nH]c3ccc(Br)cc23)[nH]c2ccccc12 | > 50.1 | > 50.1 | 31.6 | > 50.1 | > 50.1 | > 50.1 | > 50.1 | > 50.1 | 1 | 0.794 | > 100 |  | > 100 |
| Cc1cc(Br)sc1CNCCCNc1cc(=O)c2ccccc2[nH]1 | 1.58 | 0.794 | 0.501 | 25.1 | > 50.1 | 25.1 | 20 | 20 | 0.0631 | 0.1 | 39.8 |  | 63.1 |
| O=C(NCC1CCCCN1C(=O)c1cccc2ccccc12)c1ccccc1 (stereo not drawn) | 6.31 | 5.01 | 3.16 | > 50.1 | > 50.1 | > 50.1 | > 50.1 | > 50.1 | 0.398 | 0.398 | > 100 |  | > 100 |
| O=c1cc(NCCCNCc2cc(C(F)(F)F)cs2)[nH]c2ccccc12 | 7.94 | > 50.1 | 5.01 | 31.6 | > 50.1 | 39.8 | 25.1 | 20 | 0.316 | 0.398 | 63.1 |  | 25.1 |
| COc1ccc2nccc(NC(=O)C3(OC)CCN(CC(O)c4ccc5c(c4)OCCO5)CC3)c2n1 (stereo not drawn) | 0.251 | 0.316 | 0.126 | 15.8 | 10 | 20 | 6.31 | 25.1 | 0.398 | 0.501 | 39.8 |  | 1 |
| NCc1ccc2c(Cl)cc(Cl)c(O)c2n1 | 2.51 | 2 | 1.26 | 6.31 | 6.31 | 2 | 2 | 20 | 0.398 | 0.2 | 25.1 |  | 39.8 |
| Nc1ncnc2c1ncn2[C@@H]1O[C@H](CO)C[C@H]1O [CORDYCEPIN] | 1.12 | 2 | 1.26 |  | > 50.1 | > 50.1 | > 50.1 | > 50.1 | 0.0126 | 0.01 | > 100 | > 50.1 | > 100 |
